Assay results: PubChem BioAssay (NCI)
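Following 48 hours of exposure in 96-well plates, responses at five concentrations were used to interpolate endpoints linearly. Abbreviation: GI50, concentration required for 50% inhibition of growth. TGI marks complete inhibition of growth.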 Where a SMILES comes first, the peptide text is derived from it. [ ]: non-standard residue; d: D form. The star is where a group is joined. X28 = COC1=CC(=O)N(C(=O)[C@@H](O*)C(C)C)[C@H]1Cc1ccccc1; Bn2Val = CC(C)[C@@H](C(=O)*)N(Cc1ccccc1)Cc1ccccc1; NMeV = CN[C@H](C(=O)O)C(C)C; dNMeA = CN[C@H](C)C(=O)O

How the values were obtained:
Test in all cases: NCI anticancer screen, dose series, 48 h
HCT-116 colon = test system: HCT-116 colon
CAKI-1 renal = test system: CAKI-1 renal
KM12 colon = test system: KM12 colon
RPMI-8226 leukemia = test system: RPMI-8226 leukemia
MDA-MB-231 breast = test system: MDA-MB-231 breast
SK-MEL-2 melanoma = test system: SK-MEL-2 melanoma
MOLT-4 leukemia = test system: MOLT-4 leukemia
SK-OV-3 ovarian = test system: SK-OV-3 ovarian
SR leukemia = test system: SR leukemia
RXF 393 renal = test system: RXF 393 renal

COC(=O)[C@H]1[C@@H](O)[C@@]2(O)c3c(OC)cc(OC)cc3O[C@@]2(c2ccc3c(c2)OCO3)[C@@H]1c1ccccc1
TGI (HCT-116 colon): 0.4 µM | TGI (CAKI-1 renal): 0.264 µM | TGI (KM12 colon): 0.113 µM | TGI (RPMI-8226 leukemia): 0.0492 µM | TGI (MDA-MB-231 breast): 0.211 µM | TGI (SK-MEL-2 melanoma): 0.45 µM | TGI (MOLT-4 leukemia): 0.0482 µM | TGI (SK-OV-3 ovarian): 1.54 µM

Cc1c(-c2coc(-c3ccccc3)n2)c(=O)n(-c2ccccc2)n1C
TGI (SR leukemia): > 100 µM | TGI (HCT-116 colon): > 100 µM | TGI (KM12 colon): > 100 µM | TGI (RPMI-8226 leukemia): > 100 µM | TGI (SK-MEL-2 melanoma): > 100 µM | TGI (MOLT-4 leukemia): 86.9 µM | TGI (SK-OV-3 ovarian): > 100 µM

O=C(CNc1nccs1)Nn1cnc2ccc(S(=O)(=O)Nc3nccs3)cc2c1=O
TGI (SR leukemia): > 100 µM | TGI (HCT-116 colon): > 100 µM | TGI (CAKI-1 renal): > 100 µM | TGI (KM12 colon): > 100 µM | TGI (RPMI-8226 leukemia): > 100 µM | TGI (MDA-MB-231 breast): > 100 µM | TGI (SK-MEL-2 melanoma): > 100 µM | TGI (MOLT-4 leukemia): > 100 µM | TGI (SK-OV-3 ovarian): > 100 µM

CCOC(=O)CCC(NC(=O)c1ccc(Nc2nc3cc(C(F)(F)F)ccc3nc2C(=O)OCC)cc1)C(=O)OCC (stereo unspecified)
TGI (SR leukemia): > 100 µM | TGI (HCT-116 colon): 19.9 µM | TGI (RPMI-8226 leukemia): > 100 µM | TGI (MDA-MB-231 breast): 34.1 µM | TGI (SK-MEL-2 melanoma): 28.8 µM | TGI (MOLT-4 leukemia): > 100 µM

COC(=O)CCCC1(CCCC(=O)OC)CCCCCCCCC(CCCC(=O)OC)(CCCC(=O)OC)C(=O)C1=O
TGI (SR leukemia): 85.5 µM | TGI (HCT-116 colon): > 100 µM | TGI (CAKI-1 renal): 24.4 µM | TGI (KM12 colon): > 100 µM | TGI (RPMI-8226 leukemia): > 100 µM | TGI (RXF 393 renal): 69.9 µM | TGI (SK-MEL-2 melanoma): 70.5 µM | TGI (SK-OV-3 ovarian): > 100 µM

N#C/C=c1/c2ccccc2n2nc3ccccc3c12
TGI (SR leukemia): > 100 µM | TGI (HCT-116 colon): 12.1 µM | TGI (CAKI-1 renal): > 100 µM | TGI (KM12 colon): 68.3 µM | TGI (RPMI-8226 leukemia): > 100 µM | TGI (RXF 393 renal): 58.6 µM | TGI (MDA-MB-231 breast): 16.6 µM | TGI (SK-MEL-2 melanoma): > 100 µM | TGI (SK-OV-3 ovarian): 22.9 µM

COCCOC(C)C(=O)C(O)S(=O)(=O)O (stereo unspecified)
TGI (SR leukemia): > 100 µM | TGI (HCT-116 colon): > 100 µM | TGI (KM12 colon): > 100 µM | TGI (RPMI-8226 leukemia): > 100 µM | TGI (RXF 393 renal): > 100 µM | TGI (MDA-MB-231 breast): > 100 µM | TGI (SK-MEL-2 melanoma): > 100 µM | TGI (MOLT-4 leukemia): > 100 µM | TGI (SK-OV-3 ovarian): > 100 µM

CC(=O)NNC(=S)/N=C\c1c(O)c2ccccc2oc1=O
TGI (SR leukemia): > 100 µM | TGI (HCT-116 colon): > 100 µM | TGI (CAKI-1 renal): > 100 µM | TGI (KM12 colon): > 100 µM | TGI (RPMI-8226 leukemia): > 100 µM | TGI (RXF 393 renal): > 100 µM | TGI (MDA-MB-231 breast): > 100 µM | TGI (SK-MEL-2 melanoma): > 100 µM | TGI (MOLT-4 leukemia): > 100 µM

Oc1cc(Cl)cc2cc(Cl)cnc12
TGI (SR leukemia): 13.6 µM | TGI (HCT-116 colon): > 100 µM | TGI (CAKI-1 renal): 57.7 µM | TGI (KM12 colon): > 100 µM | TGI (RPMI-8226 leukemia): 12.2 µM | TGI (RXF 393 renal): 48.2 µM | TGI (MDA-MB-231 breast): 77.2 µM | TGI (MOLT-4 leukemia): 11.5 µM | TGI (SK-OV-3 ovarian): > 100 µM

COC1=CC(=O)N(C(=O)[C@@H](OC(=O)[C@@H](C)N(C)C(=O)[C@@H]2CCCN2C(=O)[C@H](C(C)C)N(C)C(=O)[C@@H](NC(=O)[C@H](C(C)C)N(Cc2ccccc2)Cc2ccccc2)C(C)C)C(C)C)[C@H]1Cc1ccccc1 (Bn2Val-V[NMeV]P[dNMeA]-X28)
TGI (SR leukemia): > 100 µM | TGI (HCT-116 colon): > 100 µM | TGI (CAKI-1 renal): > 100 µM | TGI (KM12 colon): > 100 µM | TGI (RPMI-8226 leukemia): > 100 µM | TGI (RXF 393 renal): > 100 µM | TGI (MDA-MB-231 breast): > 77.6 µM | TGI (SK-MEL-2 melanoma): > 100 µM | TGI (SK-OV-3 ovarian): > 100 µM

COc1cc(S(=O)(=O)Nc2ccc(-c3csc(N4C(=O)C(Cl)C4c4cccc(Oc5ccccc5)c4)n3)cc2)ccc1Cl (stereo unspecified)
TGI (SR leukemia): > 100 µM | TGI (HCT-116 colon): > 100 µM | TGI (CAKI-1 renal): 41.8 µM | TGI (KM12 colon): 73.9 µM | TGI (RPMI-8226 leukemia): > 100 µM | TGI (RXF 393 renal): 15.6 µM | TGI (SK-MEL-2 melanoma): 76.7 µM | TGI (MOLT-4 leukemia): > 100 µM | TGI (SK-OV-3 ovarian): > 100 µM

CCCc1n[nH]c(=O)n1N1C(=O)C=CC1=O
TGI (SR leukemia): > 100 µM | TGI (HCT-116 colon): > 100 µM | TGI (CAKI-1 renal): > 100 µM | TGI (RXF 393 renal): > 100 µM | TGI (MDA-MB-231 breast): > 100 µM | TGI (SK-MEL-2 melanoma): > 100 µM | TGI (MOLT-4 leukemia): > 100 µM | TGI (SK-OV-3 ovarian): > 100 µM

Clc1ccc2nc3n[nH]c(Cl)c3nc2c1
TGI (HCT-116 colon): > 100 µM | TGI (CAKI-1 renal): > 100 µM | TGI (KM12 colon): > 100 µM | TGI (RPMI-8226 leukemia): > 100 µM | TGI (RXF 393 renal): > 100 µM | TGI (MDA-MB-231 breast): > 100 µM | TGI (SK-MEL-2 melanoma): > 100 µM | TGI (MOLT-4 leukemia): > 100 µM | TGI (SK-OV-3 ovarian): > 100 µM

O=C(O)CN1CCCC(Cc2c[nH]c3ccccc23)C1 (stereo unspecified)
TGI (CAKI-1 renal): > 100 µM | TGI (KM12 colon): > 100 µM | TGI (RXF 393 renal): > 100 µM | TGI (MDA-MB-231 breast): > 100 µM | TGI (SK-MEL-2 melanoma): > 100 µM | TGI (SK-OV-3 ovarian): > 100 µM

C=C1C(=O)[C@]23C[C@H]1C[C@@H](O)[C@H]2[C@]1(COC3=O)[C@@H](OC(C)=O)CC[C@@](C)(COC(C)=O)[C@H]1C=O
TGI (SR leukemia): > 50 µM | TGI (HCT-116 colon): > 50 µM | TGI (CAKI-1 renal): 18.8 µM | TGI (KM12 colon): > 50 µM | TGI (RXF 393 renal): > 50 µM | TGI (MDA-MB-231 breast): > 50 µM | TGI (SK-MEL-2 melanoma): > 50 µM | TGI (MOLT-4 leukemia): 18.2 µM

COc1ccc(OC)c(NC2=NCCO2)c1
TGI (SR leukemia): > 100 µM | TGI (HCT-116 colon): > 100 µM | TGI (CAKI-1 renal): 28.8 µM | TGI (KM12 colon): > 100 µM | TGI (RPMI-8226 leukemia): > 100 µM | TGI (RXF 393 renal): > 100 µM | TGI (MDA-MB-231 breast): > 100 µM | TGI (SK-MEL-2 melanoma): > 100 µM | TGI (MOLT-4 leukemia): > 100 µM

C/C=C/c1cc2c(c(=O)o1)C(=O)[C@@H](O)[C@H](C)O2
TGI (HCT-116 colon): 20.1 µM | TGI (CAKI-1 renal): 31.3 µM | TGI (KM12 colon): 31 µM | TGI (RPMI-8226 leukemia): 34.5 µM | TGI (RXF 393 renal): 27.2 µM | TGI (SK-MEL-2 melanoma): 34.2 µM | TGI (MOLT-4 leukemia): 49.3 µM | TGI (SK-OV-3 ovarian): > 84.4 µM

O=C(NC12CC3CC(CC(C3)C1)C2)C(=O)c1c[nH]c2ccc(Br)cc12
TGI (SR leukemia): 29.6 µM | TGI (HCT-116 colon): 45.7 µM | TGI (CAKI-1 renal): > 100 µM | TGI (KM12 colon): 41.7 µM | TGI (RPMI-8226 leukemia): > 100 µM | TGI (RXF 393 renal): 6.39 µM | TGI (SK-MEL-2 melanoma): > 100 µM | TGI (MOLT-4 leukemia): 44.2 µM | TGI (SK-OV-3 ovarian): 60.8 µM

Cc1nc2ccccc2c(=O)n1NC(=O)c1ccccc1[N+](=O)[O-]
TGI (SR leukemia): > 100 µM | TGI (HCT-116 colon): > 100 µM | TGI (KM12 colon): > 100 µM | TGI (RPMI-8226 leukemia): > 100 µM | TGI (MDA-MB-231 breast): > 100 µM | TGI (MOLT-4 leukemia): > 100 µM | TGI (SK-OV-3 ovarian): > 100 µM

N/C(=N\NC(=O)c1nc2ccccc2s1)c1ccccn1
TGI (HCT-116 colon): 19.6 µM | TGI (KM12 colon): > 100 µM | TGI (RPMI-8226 leukemia): 26.8 µM | TGI (RXF 393 renal): > 69 µM | TGI (MDA-MB-231 breast): > 100 µM | TGI (SK-MEL-2 melanoma): > 100 µM | TGI (MOLT-4 leukemia): 18.7 µM | TGI (SK-OV-3 ovarian): 29.5 µM

Nc1ncnc2c1ncn2CCCC(c1ccccc1)P(=O)(O)O (stereo unspecified)
TGI (SR leukemia): > 100 µM | TGI (HCT-116 colon): > 100 µM | TGI (CAKI-1 renal): 30.7 µM | TGI (KM12 colon): > 100 µM | TGI (RXF 393 renal): > 100 µM | TGI (SK-MEL-2 melanoma): > 100 µM | TGI (SK-OV-3 ovarian): > 100 µM

CCCCCCCCCCCCCCCCNCC(O)CN (stereo unspecified)
TGI (HCT-116 colon): 3.64 µM | TGI (CAKI-1 renal): 30 µM | TGI (KM12 colon): 3.66 µM | TGI (RPMI-8226 leukemia): 4.52 µM | TGI (RXF 393 renal): 8.16 µM | TGI (SK-MEL-2 melanoma): 36.2 µM | TGI (MOLT-4 leukemia): 4.87 µM | TGI (SK-OV-3 ovarian): 35.9 µM

Cn1cc(-c2nc(-c3c[nH]c4ccncc34)cs2)c2ccccc21
GI50 (HCT-116 colon): 1.61 µM | TGI (HCT-116 colon): 3.04 µM | GI50 (CAKI-1 renal): 1.48 µM | TGI (CAKI-1 renal): 2.85 µM | GI50 (KM12 colon): 1.11 µM | TGI (KM12 colon): 2.35 µM | GI50 (MDA-MB-231 breast): 1.56 µM | TGI (MDA-MB-231 breast): 3.04 µM | GI50 (SK-MEL-2 melanoma): 1.8 µM | TGI (SK-MEL-2 melanoma): 3.51 µM | GI50 (SK-OV-3 ovarian): 1.59 µM | TGI (SK-OV-3 ovarian): 3.23 µM
